Source: patent US5464551A, “Stabilized phosphate ester-based functional fluid compositions” (Monsanto Company, priority 1993, dated 1995)

Legend:
[1] = sample as named; W samples fresh
[2] = in vivo; settings: po
[3] = in vivo
[4] = system: Ames
[5] = system: Hen; settings: in vivo
[6] = system: Bladder
[7] = system: Mouse; assay: Genotoxicity: mouse micronucleus; settings: in vivo
[8] = in vivo; settings: topical or ocular
[9] = in vivo; remark: listed apart in the source
[10] = in vivo; settings: chicken

| Compound | Independent Lab Cond. [1] [μMHO/cm] | LD50 [2] [mg/kg] | Eye Irritation [3] | Ames [4] | Hen Neurotox [5] | Subchronic Bladder Hyperplasia, level in rats [6] [ppm] | NOEL, subchronic bladder hyperplasia ([6]; rats) [ppm] | Subchronic Bladder Hyperplasia, observation ([6]; rats) | Mouse micronucleus [7] | LD50 [8] [mg/kg] | Skin Irritation [9] | LD50 [10] [mg/kg] |
| --- | --- | --- | --- | --- | --- | --- | --- | --- | --- | --- | --- | --- |
| CCCCOP(=O)(OCCCC)Oc1ccccc1 [DBPP, dibutyl phenyl phosphate] | 0.008 | – | – | – | – | – | – | – | – | – | – | – |
| CC(C)COP(=O)(OCC(C)C)OCC(C)C [TIBP, triisobutyl phosphate] | – | > 5000 | Practically non-irritating | negative | Not neurotoxic | > 5000 | 5000 | None observed | negative | > 5000 | Moderately irritating | > 5000 |
